What was measured:
SOD1^WT = target: T1, SOD1^WT (Homo sapiens, UniProt P00441); test: Thioflavin T (ThT) fluorescence aggregation assay, SOD1^WT; type: biochemical; settings: 37 °C, reduced conditions
T1 construct: The full-length constructs of SOD1-wild type (aa: 1–145); His-tag (cleaved yes); made in house; host or cells: E. coli BL21 DE3
Method: (§1) Following the co-crystal structure elucidation of SOD1 in complex with PB, we wanted to identify the effect of PB on the aggregation of SOD1^WT and its disease mutant, SOD1^A4V. A comprehensive analysis of the anti-aggregation propensity of PB was performed using a ThT-based fluorescence assay and analytical size-exclusion based chromatography (SEC) assay. We used Thioflavin-T, a β-sheet formation reporter, to assess the aggregation of SOD1. Time lag (tlag) is a kinetic parameter used to evaluate the lag phase of fibrillation. Fibril elongation was used to evaluate the rate of β sheet formation. […] Similar effects on lag time are also observed for SOD1^A4V. […] Moreover, ThT-based aggregation assays were also performed for the PB site-specific mutants, SOD1^A123F, SOD1^K9F, SOD1^L42R, and SOD1^G10P (S4a, S4c, S4e and S4g Fig). As expected based on the abovementioned MST results, the aggregation analysis is inconclusive as these mutants, which correspond to the ligand binding residues, cause a loss of protein-ligand interactions.
(§2) Fig 6 Aggregation studies of metallated and reduced SOD1^WT and SOD1^A4V on treatment with PB. ThT fluorescence was monitored during the co-incubation of metallated SOD1^WT (50 μM) (a) or SOD1^A4V (50 μM) (b) with PB at 1:30 molar ratio at 37 °C with continuous shaking, under reduced conditions. The values were normalized to the maximal ThT intensity elicited by SOD1^WT or SOD1^A4V and fitted to a Boltzmann sigmoidal equation. The control and PB-treated species were compared to analyse the effects of PB on the aggregation of SOD1^WT and SOD1^A4V. Error bars indicate the standard deviation. Analytical SEC of metallated SOD1^WT (50 μM) (c) and SOD1^A4V (50 μM) (d) with PB were analyzed under reducing conditions before and after 24 hrs and 48 hrs incubation at 37 °C. The first peak eluting at the volume was denoted as oligomerized SOD1^WT/SOD1^A4V (L). The second, third, and fourth peaks were calculated as trimer (T), dimer (D), and monomer (M) species of SOD1^WT/SOD1^A4V running at 14.5 ml, 15.7 ml, and 16.5 ml, respectively. […] The monomer (M), dimer (D), trimer (T), and large aggregate (L) species are shown as green, purple, red, and black dotted lines, respectively. All the experiments were performed for n = 3 biological replicates.
Fig 7 Aggregation studies of de-metallated and reduced SOD1^WT and SOD1^A4V on treatment with PB. ThT fluorescence was monitored during the co-incubation of de-metallated SOD1^WT (50 μM) (a) or SOD1^A4V (50 μM) (b) with PB at 1:30 molar ratio at 37 °C with continuous shaking, under reduced conditions. The values were normalized to the maximal ThT intensity elicited by SOD1^WT or SOD1^A4V and fitted to a Boltzmann sigmoidal equation. The control and PB-treated species were compared to analyse PB’s effects on the aggregation of SOD1^WT and SOD1^A4V. Analytical SEC of de-metallated SOD1^WT (50 μM) (a) and SOD1^A4V (50 μM) (b) with PB were analysed under reducing conditions before and after 24 hrs and 48 hrs incubation at 37 °C. The first peak eluting at the volume was denoted as oligomerized SOD1^WT (L) runs at 9.2 ml. The second, third, and fourth peaks were calculated as trimer (T), dimer (D), and monomer (M) species of SOD1^WT/SOD1^A4V running at 14.5 ml, 15.7 ml, and 16.5 ml, respectively. […] In the case of SOD1^A4V, PB eliminates the formation of large aggregates compared to the control (48hrs-EC, EC represents control with EDTA). […]

SOD1^A4V = target: T2, SOD1^A4V (Homo sapiens, UniProt P00441, A5V); test: Thioflavin T (ThT) fluorescence aggregation assay, SOD1^A4V; type: biochemical; settings: for kapp / t50 / tlag: 37 °C, reduced conditions
T2 construct: The full-length constructs of SOD1-wild type (aa: 1–145) and its corresponding SOD1 disease mutant, SOD1^A4V; His-tag (cleaved yes); made in house; host or cells: E. coli BL21 DE3
Method: as §1, §2
Fig 7 Aggregation studies of de-metallated and reduced SOD1^WT and SOD1^A4V on treatment with PB. ThT fluorescence was monitored during the co-incubation of de-metallated SOD1^WT (50 μM) (a) or SOD1^A4V (50 μM) (b) with PB at 1:30 molar ratio at 37 °C with continuous shaking, under reduced conditions. The values were normalized to the maximal ThT intensity elicited by SOD1^WT or SOD1^A4V and fitted to a Boltzmann sigmoidal equation. The control and PB-treated species were compared to analyse PB’s effects on the aggregation of SOD1^WT and SOD1^A4V. Analytical SEC of de-metallated SOD1^WT (50 μM) (a) and SOD1^A4V (50 μM) (b) with PB were analysed under reducing conditions before and after 24 hrs and 48 hrs incubation at 37 °C. The first peak eluting at the volume was denoted as oligomerized SOD1^WT (L) runs at 9.2 ml. The second, third, and fourth peaks were calculated as trimer (T), dimer (D), and monomer (M) species of SOD1^WT/SOD1^A4V running at 14.5 ml, 15.7 ml, and 16.5 ml, respectively. […] In the case of SOD1^A4V, PB eliminates the formation of large aggregates compared to the control (48hrs-EC, EC represents control with EDTA). The monomer (M), dimer (D), trimer (T), and large aggregate (L) species are shown as green, purple, red, and black dotted lines, respectively. All the experiments were performed for n = 3 biological replicates.
Aggregation assays were performed on SOD1^WT, the disease mutant A4V, and ligand-binding site-specific mutants to check the anti-aggregation activity of PB on the former. […] The ThT assay for the SOD1 aggregation was carried out per the recently published protocol. […]

[1] = De-metallated (5 mM EDTA) SOD1^WT 50 μM with PB at 1:30 molar ratio
[2] = Metallated SOD1^WT 50 μM with PB at 1:30 molar ratio
[3] = De-metallated (5 mM EDTA) SOD1^A4V 50 μM with PB at 1:30 molar ratio
[4] = Metallated SOD1^A4V 50 μM with PB at 1:30 molar ratio

T2 sequence (P00441 whole entry A5V): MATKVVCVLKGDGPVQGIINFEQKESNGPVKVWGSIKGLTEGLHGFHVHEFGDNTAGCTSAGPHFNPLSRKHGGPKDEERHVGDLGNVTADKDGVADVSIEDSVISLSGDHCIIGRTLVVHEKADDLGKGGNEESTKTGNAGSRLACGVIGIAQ
T1 sequence (P00441 whole entry): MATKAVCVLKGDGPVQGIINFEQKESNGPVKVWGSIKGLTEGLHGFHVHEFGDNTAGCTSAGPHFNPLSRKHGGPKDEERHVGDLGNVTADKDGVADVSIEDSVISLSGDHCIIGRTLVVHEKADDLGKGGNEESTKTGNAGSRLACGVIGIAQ

How did the kapp (SOD1^WT; [1]) turn out when `CCCC[C@H](C)/C=C(C)/C=C/C(=O)O` [PB, (S, 2E, 4E)-4,6-dimethyldeca-2,4-dienoic acid] was run?
Its kapp is 0.374 h⁻¹.

What about the t50 (SOD1^WT; [1]) of the same compound?
Its t50 is 1.851 h.

And the tlag (SOD1^WT; [1])?
Its tlag is 1.84 h.

And the kapp (SOD1^WT; [2])?
The kapp was 0.233 h⁻¹.

What about the t50 (SOD1^WT; [2]) of the same compound?
Its t50 is 2.976 h.

What about the kapp (SOD1^A4V; [3]) of the same compound?
Its kapp is 0.05 h⁻¹.

What about the t50 (SOD1^A4V; [3]) of the same compound?
Its t50 is 13.57 h.

And the tlag (SOD1^A4V; [3])?
The tlag was 13.55 h.

What about the kapp (SOD1^A4V; [4]) of the same compound?
The kapp was 0.07 h⁻¹.

And the t50 (SOD1^A4V; [4])?
Its t50 is 10.45 h.

What about the tlag (SOD1^A4V; [4]) of the same compound?
The tlag was 10.44 h.

And the “ThT signal of SOD1^A4V aggregation” value (SOD1^A4V; Metallated SOD1^A4V 50 μM, PB 1:30, versus control)?
Its value is “drastic reduction in the ThT signal”.

— publication PMC10917278, “Structural insights into the modulation Of SOD1 aggregation By a fungal metabolite Phialomustin-B: Therapeutic potential in ALS” (PLOS ONE, 2024)
